According to US12180252B2, “Peptide derived from PEP27 peptide and uses thereof” (priority 2021, dated 2024):
Like-named read-outs stand apart in the source and are kept apart here. Where a SMILES comes first, the peptide text is derived from it.

Experiments:
B. subtilis KCTC1998 = type: cell-based, Bacillus subtilis; settings: KCTC1998, 18 h
Method: (§1) In order to evaluate the antimicrobial activity of the peptides prepared by the method of above 1, a minimal inhibitory concentration (MIC) value as the minimum concentration of a peptide, in which cells are not divided, was measured.
(§2) Specifically, the strains shown in Table 3 below were purchased, cultured in a medium having a constitutional composition suitable for each strain to a mid-log phase, and then diluted to a concentration of 2×10^4 cells/100 μl to prepare the product on a micro-titration plate (Nunc, USA). Then, PEP27, PEP27-1, PEP27-2 or PEP27-5 peptide synthesized in the above 1 was added to each well by serial dilution ½ times, followed by incubation at 37° C. for 18 hours.

L. monocytogens KCTC3710 = type: cell-based, Listeria monocytogenes; settings: KCTC3710, 18 h
Method: as §1, §2

E. coli ATCC25922 = type: cell-based, Escherichia coli; settings: ATCC25922, 18 h
Method: as §1, §2

E. coli ATCC27325 = type: cell-based, Escherichia coli; settings: ATCC27325, 18 h
Method: as §1, §2

E. coli CCARM1229 = type: cell-based, Escherichia coli; settings: E. coli CCARM1229, antibiotics-tolerant; 37° C., 18 hours
Method: as §1, §2

E. coli CCARM1238 = type: cell-based, Escherichia coli; settings: E. coli CCARM1238, antibiotics-tolerant; 37° C., 18 hours
Method: as §1, §2

P. aeruginosa 4007 = test: microbe, parasite or virus in culture; settings: 4007, 18 h
Method: as §1, §2
(§3) Specifically, subject strains were prepared by the method of above 2, and were treated with the antibiotics, that is, meropenem, ceftazidime, ceftriaxone or vancomycin, respectively, followed by determining MICs of the antibiotics.

P. aeruginosa 4891 = test: microbe, parasite or virus in culture; settings: 4891, 18 h
Method: as §1, §2, §3

P. aeruginosa ATCC15692 = test: microbe, parasite or virus in culture; settings: ATCC15692, 18 h
Method: as §1, §2, §3

P. aeruginosa ATCC27853 = test: microbe, parasite or virus in culture; settings: ATCC27853, 18 h
Method: as §1, §2, §3

S. aureus ATCC25923 = test: microbe, parasite or virus in culture; settings: ATCC25923, 18 h
Method: as §1, §2, §3

S. aureus ATCC29213 = test: microbe, parasite or virus in culture; settings: ATCC29213, 18 h
Method: as §1, §2, §3

S. aureus CCARM3089 = test: microbe, parasite or virus in culture; settings: S. aureus CCARM3089, antibiotics-tolerant; 37° C., 18 hours
Method: as §1, §2, §3

S. aureus CCARM3090 = test: microbe, parasite or virus in culture; settings: S. aureus CCARM3090, antibiotics-tolerant; 37° C., 18 hours
Method: as §1, §2, §3

S. aureus CCARM3518 = test: microbe, parasite or virus in culture; settings: S. aureus CCARM3518, antibiotics-tolerant; 37° C., 18 hours
Method: as §1, §2, §3

S. aureus MW2 = test: microbe, parasite or virus in culture; settings: S. aureus MW2, antibiotics-tolerant; 37° C., 18 hours
Method: as §1, §2, §3

S. aureus USA300 = test: microbe, parasite or virus in culture; settings: S. aureus USA300, antibiotics-tolerant; 37° C., 18 hours
Method: as §1, §2, §3

[1] = tested on: Sa. typhimurium CCARM8007; type: cell-based, Salmonella typhimurium; settings: Sa. typhimurium CCARM8007, antibiotics-tolerant; 37° C., 18 hours
Method: as §1, §2

[2] = tested on: Sa. typhimurium CCARM8009; type: cell-based, Salmonella typhimurium; settings: Sa. typhimurium CCARM8009, antibiotics-tolerant; 37° C., 18 hours
Method: as §1, §2

Sa. typhimurium KCTC1926 = type: cell-based, Salmonella typhimurium; settings: KCTC1926, 18 h
Method: as §1, §2

[3] = tested on: red blood cells of a rat (Balb/c); settings: 37° C., 1 hour
Method: In order to compare the cytotoxicity of the peptides prepared by the method of above 1, erythrocyte hemolytic activity of each of the synthesized peptides was measured.
Specifically, red blood cells of a rat (Balb/c, 6 weeks old, female) were diluted with PBS (pH 7.0) to a concentration of 8%, and PEP27, PEP27-1, PEP27-2 and PEP27-5 peptides were used for treatment of the cells at concentrations of 3.13, 6.25, 12.5, 25.01 50.0 and 100.0 μM/well, respectively, followed by reaction at 37° C. for 1 hour. Then, an amount of hemoglobin contained in the supernatant obtained by centrifugation at 1,000×g was determined by measuring the absorbance at a wavelength of 414 nm. As a control which is a standard for the degree of cell destruction, the absorbance of the obtained supernatant was measured after treatment using 1% Triton X-100 (Sigma, USA) and reaction at 37° C. for 1 hour. With reference to 100% erythrocytes hemolysis activity, hemolysis of each peptide was calculated from the measured absorbance using Equation 1 below. Erythrocyte destruction ability (%)=(Absorbance A−Absorbance B)/(Absorbance C−Absorbance B)×100 [Equation 1]
(wherein, absorbance A represents the absorbance of a reaction solution treated with each peptide measured at a wavelength of 414 nm; absorbance B represents the absorbance of a reaction solution treated with PBS measured at a wavelength of 414 nm; and absorbance C represents the absorbance of a reaction solution treated with 1% Triton X-100 measured at a wavelength of 414 nm).

MTT cytotoxicity = type: cell-based, human; settings: human; 100 μM, 24 h, MTT, HaCaT and MCF-7 cells; read-out: cell viability
Method: Specifically, Thiazolyl blue tetrazolium bromide (MTT, Merck KGaA) was used to determine the cytotoxicity of PEP27 and its analogs against HaCaT (human keratinocyte […], n=4 per condition) and MCF-7 (human breast adenocarcinoma, n=3 per condition) cells. The cells were cultured in Dulbecco's modified Eagle's medium (DMEM) supplemented with 10 heat-inactivated fetal bovine serum (FBS, Gibco, Grand Island, NY, USA) and 1% penicillin-streptomycin (Gibco) at a density of 2×10^4 cells/well (96-well plate). Peptides were then added at various concentrations and incubated for 24 h at 37° C., after which MTT (final concentration, 0.5 mg/mL) was added to each well and incubated for 4 h. The formazan product was solubilized in DMSO, and the absorbance at 570 nm was measured to […] cytotoxicity. Cells treated with 0.1% Triton X-100 were used as the 100% cytotoxic control sample.

[4] = Calcein release from LUVs; settings: peptide-to-lipid (P/L) ratio 0.2; PE/PG and PC/CH/SM liposomes; 100% = 0.1% Triton X-100
Method: To examine the mechanism of action of PEP27 and PEP27-2, we evaluated the changes in bacterial cell membrane permeability by monitoring the release of calcein, a fluorescent marker, from calcein entrapped LUVs with different lipid bilayer compositions.
Peptide-induced membrane permeabilization was quantified by monitoring calcein release from LUVs (n=3 per condition). Different calcein-entrapped LUVs [PE/PG (7/3) or PC/CH/SM (1/1/1)] were prepared as described above, except that the dry lipid films were resuspended in 1 mL of PBS (pH 7.2) containing 70 mM calcein. Gel filtration chromatography on a Sephadex G-50 column was performed to separate free calcein from that entrapped in LUVs. Thereafter, the LUVs with entrapped calcein were mixed with peptides at various ratios, and the fluorescence of the released calcein was measured with a SpectraMax M3 Multi-Mode Microplate Reader (Molecular Devices, Sunnyvale, CA, USA) at excitation and emission wavelengths of 480 and 520 nm, respectively.

E. coli = test: Flow cytometry, propidium iodide staining; type: cell-based, Escherichia coli
Method: In order to confirm whether the peptide prepared by the method of above 1 acts on the bacterial membrane, PEP27-2 peptide having better antimicrobial activity than the parental peptide was analyzed through flow cytometry.
Thereafter, the supernatant was removed using a centrifuge (10,000 rpm) and stained with propidium iodide (PI) at a concentration of 10 μg/ml at 4° C. for 30 minutes. Then, the unbound propidium iodide (PI) was removed using the centrifuge, and 1 ml of physiological saline (PBS) was added to remove agglomeration of the cells. Thereafter, effects of the peptide on the bacterial membrane were determined using a Bechman flow cytometer.

plasmid DNA (pRSETB) = test: Peptide-DNA binding by agarose gel electrophoresis; settings: peptide/DNA ratios 0.25:1 to 4:1, 300 ng plasmid DNA
Method: Specifically, 300 ng of plasmid DNA (pRSETB) was reacted with the peptide by a relative ratio (reactions were performed at peptide/DNA ratios of DNA alone, 0.25:1, 0.5:1, 1:1, 1.5:1, 2:1, 3:1, 4:1, respectively) at 37° C. for 10 minutes, followed by conducting electrophoresis on a 1% agarose gel, staining the same with ethidium bromide (EtBr) and monitoring through UV.

[5] = Peptide concentration 100 μM, 100% = 1% Triton X-100

CSCC[C@H](N)C(=O)N[C@@H](Cc1c[nH]c2ccccc12)C(=O)N[C@@H](CCCCN)C(=O)N[C@@H](Cc1c[nH]c2ccccc12)C(=O)N[C@@H](Cc1ccccc1)C(=O)N[C@@H](Cc1c[nH]cn1)C(=O)N[C@@H](CC(N)=O)C(=O)N[C@H](C(=O)N[C@@H](CC(C)C)C(=O)N[C@@H](CO)C(=O)N[C@@H](CO)C(=O)NCC(=O)N[C@@H](CCC(N)=O)C(=O)N[C@@H](CC(C)C)C(=O)N[C@@H](CC(C)C)C(=O)N[C@@H](C)C(=O)N[C@@H](CC(=O)O)C(=O)N[C@@H](CCCCN)C(=O)N[C@@H](Cc1c[nH]c2ccccc12)C(=O)N[C@@H](Cc1c[nH]c2ccccc12)C(=O)N[C@@H](C)C(=O)N[C@@H](Cc1c[nH]c2ccccc12)C(=O)N[C@@H](Cc1c[nH]c2ccccc12)C(=O)N[C@@H](Cc1ccc(O)cc1)C(=O)N[C@@H](CC(N)=O)C(=O)N[C@@H](Cc1c[nH]c2ccccc12)C(=O)N[C@@H](Cc1c[nH]c2ccccc12)C(N)=O)C(C)C [PEP27-5] (H-MWKWFHNVLSSGQLLADKWWAWWYNWW-NH2)
Minimal inhibitory concentration (B. subtilis KCTC1998): >64 µM
Minimal inhibitory concentration (L. monocytogens KCTC3710): >64 µM
Minimal inhibitory concentration (E. coli ATCC25922): >64 µM
Minimal inhibitory concentration (E. coli ATCC27325): >64 µM
Minimal inhibitory concentration (E. coli CCARM1229): >64 µM
Minimal inhibitory concentration (E. coli CCARM1238): >64 µM
Minimal inhibitory concentration (P. aeruginosa 4007): >64 µM
Minimal inhibitory concentration (P. aeruginosa 4891): >64 µM
Minimal inhibitory concentration (P. aeruginosa ATCC15692): >64 µM
Minimal inhibitory concentration (P. aeruginosa ATCC27853): >64 µM
Minimal inhibitory concentration (S. aureus ATCC25923): >64 µM
Minimal inhibitory concentration (S. aureus ATCC29213): >64 µM
Minimal inhibitory concentration (S. aureus CCARM3089): >64 µM
Minimal inhibitory concentration (S. aureus CCARM3090): >64 µM
Minimal inhibitory concentration (S. aureus CCARM3518): >64 µM
Minimal inhibitory concentration (S. aureus MW2): >64 µM
Minimal inhibitory concentration (S. aureus USA300): >64 µM
Minimal inhibitory concentration [1]: >64 µM
Minimal inhibitory concentration [2]: >64 µM
Minimal inhibitory concentration (Sa. typhimurium KCTC1926): >64 µM
Erythrocyte destruction ability ([3]; Peptide concentration 3.13 μM): 0%
Erythrocyte destruction ability ([3]; Peptide concentration 6.25 μM): 0%
Erythrocyte destruction ability ([3]; Peptide concentration 12.5 μM): 0%
Erythrocyte destruction ability ([3]; Peptide concentration 25 μM): 0%
Erythrocyte destruction ability ([3]; Peptide concentration 50 μM): 2.34%
Erythrocyte destruction ability [3, 5]: 3.25%
viability at 24 h, 100 µM (MTT cytotoxicity): 100%

CSCC[C@H](N)C(=O)N[C@@H](CCCNC(=N)N)C(=O)N[C@@H](CCCCN)C(=O)N[C@@H](CCC(=O)O)C(=O)N[C@@H](Cc1ccccc1)C(=O)N[C@@H](Cc1c[nH]cn1)C(=O)N[C@@H](CC(N)=O)C(=O)N[C@H](C(=O)N[C@@H](CC(C)C)C(=O)N[C@@H](CO)C(=O)N[C@@H](CO)C(=O)NCC(=O)N[C@@H](CCC(N)=O)C(=O)N[C@@H](CC(C)C)C(=O)N[C@@H](CC(C)C)C(=O)N[C@@H](C)C(=O)N[C@@H](CC(=O)O)C(=O)N[C@@H](CCCCN)C(=O)N[C@@H](CCCNC(=N)N)C(=O)N1CCC[C@H]1C(=O)N[C@@H](C)C(=O)N[C@@H](CCCNC(=N)N)C(=O)N[C@@H](CC(=O)O)C(=O)N[C@@H](Cc1ccc(O)cc1)C(=O)N[C@@H](CC(N)=O)C(=O)N[C@@H](CCCNC(=N)N)C(=O)N[C@@H](CCCCN)C(N)=O)C(C)C [PEP27] (H-MRKEFHNVLSSGQLLADKRPARDYNRK-NH2; N-terminus assumed)
Erythrocyte destruction ability ([3]; Peptide concentration 3.13 μM): 0%
Erythrocyte destruction ability ([3]; Peptide concentration 6.25 μM): 1.26%
Erythrocyte destruction ability ([3]; Peptide concentration 12.5 μM): 1.79%
Erythrocyte destruction ability ([3]; Peptide concentration 25 μM): 2.76%
Erythrocyte destruction ability ([3]; Peptide concentration 50 μM): 3.64%
Erythrocyte destruction ability [3, 5]: 3.58%
viability at 24 h, 100 µM (MTT cytotoxicity): 100%
calcein leakage [4]: 12%
bacterial membrane destruction (E. coli; E. coli, flow cytometry): without destruction of the E. coli membrane
PI-positive E. coli cells (membrane destruction ability) (E. coli; at MIC, 37° C., 1 hour): 19.9%
binding to DNA (gel electrophoresis) (plasmid DNA (pRSETB)): bound to DNA
